Data taken from PMC7189019.

Assay: On-resin head-to-side-chain macrolactonisation with cyclative cleavage: free Tyr phenol attacks the C-terminal N-acyl-MeNbz (N-acyl-N'-methylurea) resin, 10% DIEA, giving the Tyr phenyl ester
Settings: the molecule shown is the open-chain precursor, DCM (models 1-4, rt; 1 and 4 retried in DMF at 60 C), DMF (BPC822, 60 C), scale: 1=cyclic product detected, 0=not detected

`CCCCCC(=O)N[C@@H](Cc1ccc(O)cc1)C(=O)N[C@@H](CC(C)C)C(=O)N1CCC[C@H]1C(=O)N[C@@H](Cc1ccccc1)C(=O)N[C@H](C(=O)N[C@H](C(=O)NCC(=O)n1c(=O)n(C)c2ccc(C(=O)NCC(N)=O)cc21)C(C)C)[C@@H](C)CC` showed a ring closure, product found (26-membered ring) of 1.
With `CC[C@H](C)[C@H](NC(=O)[C@@H](Cc1ccc(OC(C)(C)C)cc1)NC(=O)[C@H](CCC(=O)NC(c1ccccc1)(c1ccccc1)c1ccccc1)NC(=O)[C@@H]1CCCN1C(=O)[C@@H](NC(=O)[C@H](CCC(=O)OC(C)(C)C)NC(=O)[C@@H](NC(=O)[C@H](Cc1ccc(O)cc1)NC(=O)OC(C)(C)C)[C@@H](C)OC(C)(C)C)C(C)C)C(=O)n1c(=O)n(C)c2ccc(C(=O)NCC(N)=O)cc21` the ring closure, product found (29-membered ring, 0.5 h) was 1.
`CCCCCC(=O)N[C@@H](Cc1ccc(O)cc1)C(=O)N[C@@H](C)C(=O)N[C@@H](CC(C)C)C(=O)N1CCC[C@H]1C(=O)N[C@@H](Cc1ccccc1)C(=O)N[C@H](C(=O)N[C@H](C(=O)NCC(=O)n1c(=O)n(C)c2ccc(C(=O)NCC(N)=O)cc21)C(C)C)[C@@H](C)CC` gave a ring closure, product found (29-membered ring) of 1.
For `CCCCCC(=O)N[C@@H](Cc1ccc(O)cc1)C(=O)NCC(=O)N[C@@H](Cc1ccccc1)C(=O)N[C@@H](C)C(=O)N1CCC[C@H]1C(=O)N[C@@H](C)C(=O)N[C@H](C(=O)N[C@H](C(=O)NCC(=O)n1c(=O)n(C)c2ccc(C(=O)NCC(N)=O)cc21)C(C)C)[C@@H](C)CC`, the ring closure, product found (32-membered ring) was 0.
For `CCCCCC(=O)N[C@@H](Cc1ccc(O)cc1)C(=O)N1CCC[C@H]1C(=O)N[C@@H](Cc1ccccc1)C(=O)N[C@H](C(=O)N[C@H](C(=O)NCC(=O)n1c(=O)n(C)c2ccc(C(=O)NCC(N)=O)cc21)C(C)C)[C@@H](C)CC`, the ring closure, product found (23-membered ring) was 0.
